The source of these data is US20060084675A1, “Combined treatment with artesunate and an epidermal growth factor receptor kinase inhibitor” (priority 2004, published 2006).

SMILES strings stand for the structures. Several values for one entry are separate records, joined by “and”; a condition that tells them apart may be missing. Identical values can stand only once. Like-named read-outs stand apart in the source and are kept apart here.

For one series, the system named is G-599GM cell line. Kind of series: Growth inhibition assay (incl. isobolographic analysis). In kind it is cell-based. Conditions: Homo sapiens; for IC50: read-out: IC50, drug alone. How it is done:
(§1) Nine established GBM cell lines derived from histopathologically confirmed neurosurgical specimens obtained in the Department for Neurosurgery, University of Gottingen, Germany, were maintained in RPMI 1640 medium (BioWhittaker, Walkersville, Md., U.S.A.) supplemented with 10% heat-inactivated fetal calf serum and incubated in a humidified 5% CO2 atmosphere at 37° C. Medium was exchanged twice weekly, and cells were passaged upon reaching subconfluence. At the beginning of the study, all cell lines were beyond their 20th passage. The in vitro response to cytostatic drugs was evaluated by means of a growth inhibition assay. Aliquots of 5×10^3 cells/ml were seeded in culture medium, and drugs were added at different concentrations. Cells were counted 10 days after seeding. These growth curves represent the net outcome of cell proliferation and cell death. Cell numbers were quantitated each in eight independent determinations. […] G. and Peckham, M. J. (1979) Int. J. Radiat. Oncol. Biol. Phys. 5:85-91; Berenbaum, M. C. (1981) Adv. Cancer Res. 35:269-335).

For series [1] the following is noted: intravenous application of 2 mg/kg; cited from earlier work.
For the next series, the system named is 14 GBM cell lines. Kind of series: Growth inhibition assay, panel. The class given is cell-based. Particulars: Homo sapiens; ART alone; range over 14 cell lines.
Source text: as §1, with “(1997) J. Biol. Chem. 272:2927-2935). The cell lines were provided by Dr. W. K. Cavenee (Ludwig Institute for Cancer Research, San Diego, Calif., U.S.A.). Cell culture conditions of these cell lines were as described ([…], et al. (1996) Cancer Res. 56:5079-5086). Nine” for “Nine”

The next series relates to U-87MG.WT-2N cells. Kind of series: Growth inhibition assay. Conditions: Homo sapiens. In kind it is cell-based. As to the method:
(§2) The establishment of the parental human GBM cell line U-87MG and its derivatives which overexpress exogenous wild-type epidermal growth factor receptor (U-87MG.WT-2N), tyrosine kinase-deficient EGFR (U-87MG.DK-2N), EGFR with a genomic deletion of exons 2 to 7 (U-87MG.ΔEGFR), or control expression vector (U-87MG.LUX), respectively, has been described elsewhere (Huang, H-J S et al. (1997) J. Biol. Chem. 272:2927-2935). The cell lines were provided by Dr. W. K. Cavenee (Ludwig Institute for Cancer Research, San Diego, Calif., U.S.A.). Cell culture conditions of these cell lines were as described (Nagane M, et al. (1996) Cancer Res. 56:5079-5086).
(§3) The in vitro response to cytostatic drugs was evaluated by means of a growth inhibition assay. Aliquots of 5×10^3 cells/ml were seeded in culture medium, and drugs were added at different concentrations. Cells were counted 10 days after seeding. These growth curves represent the net outcome of cell proliferation and cell death. Cell numbers were quantitated each in eight independent determinations.

The test system of a further series is U-87MG cells. Kind of series: Growth inhibition assay. Particulars: Homo sapiens, 240 h, single drug, cells counted 10 days after seeding, read-out: IC50 calculated from the dose-response curves. The class given is cell-based. How it is done: as §2, §3
A further series concerns G-1265GM. Kind of series: Growth inhibition assay. Particulars: Homo sapiens. The class given is cell-based. How it is done: Nine established GBM cell lines derived from histopathologically confirmed neurosurgical specimens obtained in the Department for Neurosurgery, University of Gottingen, Germany, were maintained in RPMI 1640 medium (BioWhittaker, Walkersville, Md., U.S.A.) supplemented with 10% heat-inactivated fetal calf serum and incubated in a humidified 5% CO2 atmosphere at 37° C. Medium was exchanged twice weekly, and cells were passaged upon reaching subconfluence. At the beginning of the study, all cell lines were beyond their 20th passage.
as §3

The conditions of series [2]: patients with advanced solid malignancies, phase I; cited from earlier work.

Broadly, the IC50 is the midpoint of a concentration-inhibition curve. In the case of `C[C@H]1[C@H](OC(=O)CCC(=O)O)O[C@@H]2O[C@@]3(C)CC[C@H]4[C@H](C)CC[C@@H]1[C@@]24OO3` [ART, artesunate], the IC50 is 4.2 µM in the series with G-599GM cell line (single drug) and 1.5 to 18.5 µM with 14 GBM cell lines. The peak plasma concentration in series [1] was 6.88 ± 4.69 µM.

What is called inhibition is the change of the read-out against control, counted positive when it falls. On to `C#Cc1cccc(Nc2ncnc3cc(OCCOC)c(OCCOC)cc23)c1` [OSI-774, [6,7-bis(2-methoxyethoxy)-4-quinazolin-4-yl]-(3-ethynylphenyl)amine], for which the inhibition at 1 µM with U-87MG.WT-2N cells was 33.8%; with G-599GM cell line (read-out: growth inhibition) it was 23.4%; in the series on G-1265GM it was -1.79%. For the same compound, the IC50 in the series on U-87MG cells is 8.6 µM; with G-599GM cell line, 1.3 µM. Besides, the “average minimal steady state plasma concentration” value in series [2] is 1.2 μg/ml and 3 μM.
